Assay results reported in patent US7919295B2, “Polyol oxidases” (Danisco US Inc., priority 2006, dated 2011).

System: Sorbitol oxidase
Assay: Substrate range study of sorbitol oxidase (relative POx activities for substrates)
Type: biochemical, Streptomyces sp. H-7775
[1] = substrates 50 mM in 10 mM phosphate buffer pH 7.0, relative to sorbitol

Relative Activity (+, 0) [1] | Structure (SMILES) | Relative Activity (+, 0) (pH 7)
++++++ (++++++=100%) | OC[C@@H](O)[C@@H](O)[C@H](O)[C@@H](O)CO [D-Sorbitol] | 
 | OCCO [Ethylene glycol] | 0
0 | CC(O)CO (stereo not drawn) [Propylene glycol] | 
